Consider 3 compounds from ChEMBL document CHEMBL5055652 (Bioorg Med Chem, 2021).

Active and inactive are the calls of the source. The calls are words filed in the database; no cut-off is given here.

Format in all cases: cell-based
Experiment [1] has as its target T1, Progesterone receptor (Homo sapiens) (UniProt P06401).
T1 sequence (whole entry): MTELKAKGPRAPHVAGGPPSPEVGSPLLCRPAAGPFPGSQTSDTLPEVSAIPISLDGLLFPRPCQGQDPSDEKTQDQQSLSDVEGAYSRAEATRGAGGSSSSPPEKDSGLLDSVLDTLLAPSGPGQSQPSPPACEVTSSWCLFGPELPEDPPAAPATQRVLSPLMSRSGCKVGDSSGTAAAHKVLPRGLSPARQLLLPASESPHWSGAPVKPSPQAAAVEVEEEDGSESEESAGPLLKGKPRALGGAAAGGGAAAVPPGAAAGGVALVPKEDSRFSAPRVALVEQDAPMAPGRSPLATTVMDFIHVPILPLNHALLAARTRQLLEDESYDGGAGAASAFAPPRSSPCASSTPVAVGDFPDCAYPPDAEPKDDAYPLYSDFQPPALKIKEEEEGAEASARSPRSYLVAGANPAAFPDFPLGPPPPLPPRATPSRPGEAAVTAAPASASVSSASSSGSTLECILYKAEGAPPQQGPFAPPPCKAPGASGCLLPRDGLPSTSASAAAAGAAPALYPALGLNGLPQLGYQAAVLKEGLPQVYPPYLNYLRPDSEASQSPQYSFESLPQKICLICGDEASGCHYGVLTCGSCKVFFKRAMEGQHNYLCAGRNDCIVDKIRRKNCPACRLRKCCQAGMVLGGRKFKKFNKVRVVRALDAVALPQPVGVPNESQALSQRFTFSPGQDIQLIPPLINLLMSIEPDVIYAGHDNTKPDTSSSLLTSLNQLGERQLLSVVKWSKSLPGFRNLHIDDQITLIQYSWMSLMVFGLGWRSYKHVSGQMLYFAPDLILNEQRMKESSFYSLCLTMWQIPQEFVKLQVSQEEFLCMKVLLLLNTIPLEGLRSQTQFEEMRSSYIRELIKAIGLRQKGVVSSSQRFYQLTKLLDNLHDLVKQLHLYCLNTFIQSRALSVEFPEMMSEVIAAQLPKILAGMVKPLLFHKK
The experiment is described as follows: Agonist activity at PR in human T47D cells using p-nitrophenyl phosphate as substrate assessed as induction of alkaline phosphatase activity at 1 nM incubated for 72 hrs followed by substrate addition measured after 24 hrs by alkaline phosphatase assay relative to control. Particulars: filed as agonist, time 96.0 hrs.

Experiment [2] deals with T2, Progesterone receptor (Homo sapiens, UniProt P06401).
T2 sequence (P06401 whole entry): T1 sequence (whole entry)
The experiment is described as follows: Agonist activity at PR in human T47D cells using p-nitrophenyl phosphate as substrate assessed as induction of alkaline phosphatase activity incubated for 72 hrs followed by substrate addition measured after 24 hrs by alkaline phosphatase assay.

Experiment [3] has as its target T1, Progesterone receptor (Homo sapiens). The experiment is described as follows: Agonist activity at PR in human T47D cells using p-nitrophenyl phosphate as substrate assessed as fold increase in alkaline phosphatase activity at 25 nM incubated for 72 hrs followed by substrate addition measured after 24 hrs by alkaline phosphatase assay relative to control. The conditions noted are these: filed as agonist, time 96.0 hrs.

Experiment [4] has the same target. The experiment is described as follows: Agonist activity at PR in human T47D cells using p-nitrophenyl phosphate as substrate assessed as induction of alkaline phosphatase activity at 125 nM incubated for 72 hrs followed by substrate addition measured after 24 hrs by alkaline phosphatase assay. The conditions noted are these: time 96.0 hrs.

In general, EC50 refers to the concentration that produces a half-maximal response. For the compound `CC(=O)O[C@]1(C(C)=O)CC[C@H]2[C@@H]3CCC4=CC(=O)CC[C@@H]4[C@H]3[C@@H](C)C[C@@]21C` [NORGESTOMET], the Activity in experiment [1] was determined as 106%. Besides, the EC50 in experiment [2] was determined as 4.5 nM. For the same compound, in experiment [3], the fold change (FC) is 2.
Turning to `CC(=O)O[C@@]1(C(C)=O)CC[C@H]2[C@@H]3CCC4=CC(=O)CC[C@@H]4[C@H]3[C@@H](C)C[C@@]21C`, in experiment [1], the Activity is 89.3%. Further, in experiment [2], the EC50 is > 125 nM. The result in experiment [4] was inactive.
With `CC(=O)[C@H]1CC[C@H]2[C@@H]3CCC4=CC(=O)CC[C@]4(C)[C@H]3CC[C@]12C`, the Activity in experiment [1] was determined as 158%.
